# Values quoted from earlier work, collected in patent publication US20070281996A1, “Creatine prodrugs, compositions and uses thereof” (XenoPort, Inc., priority 2006, published 2007).
# Assays:
# [1] = following oral creatine supplementation
# [2] = healthy volunteers, oral creatine administration (Dechent et al.)
structure (smiles),measurement,setting,value
"CN(CC(=O)O)C(=N)N [creatine, Creatine]",duration of increase in tissue creatine phosphate levels,[1],> 14 days
same,increase of cerebral creatine phosphate,[2],about 10%
